ChEMBL document CHEMBL3046691, “Herbicidal pyridyl derivatives of aminomethylene-bisphosphonic acid inhibit plant glutamine synthetase” (J Agric Food Chem, 2004)
Calls of active or inactive are those of the source. The rule behind the calls is not given here.

Experiments:
Glutamine synthetase [1] = biological target: T1, Glutamine synthetase (Oryza sativa, UniProt Q01HZ7); experiment: Inhibition of Oryza sativa cv. Gigante vercellese (rice) glutamine synthetase assessed as inhibition of glutamine synthesis from glutamic acid after 15 min by biosynthetic assay; details: read-out: I50
T1 sequence (Q01HZ7 whole entry): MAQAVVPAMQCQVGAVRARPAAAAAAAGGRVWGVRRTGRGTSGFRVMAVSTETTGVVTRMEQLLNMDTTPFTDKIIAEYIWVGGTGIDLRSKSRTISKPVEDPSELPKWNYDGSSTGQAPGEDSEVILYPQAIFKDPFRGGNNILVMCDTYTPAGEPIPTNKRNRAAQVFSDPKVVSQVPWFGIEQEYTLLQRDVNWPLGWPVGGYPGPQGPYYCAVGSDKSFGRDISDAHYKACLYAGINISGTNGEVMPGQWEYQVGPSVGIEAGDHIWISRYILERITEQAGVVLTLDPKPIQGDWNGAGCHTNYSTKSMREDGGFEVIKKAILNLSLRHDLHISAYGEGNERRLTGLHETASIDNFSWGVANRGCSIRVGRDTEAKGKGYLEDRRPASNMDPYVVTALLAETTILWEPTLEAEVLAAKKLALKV

Glutamine synthetase [2] = biological target: T1, Glutamine synthetase; experiment: (§1) Inhibition of Oryza sativa cv. Gigante vercellese (rice) glutamine synthetase after 30 min by hemibiosynthetic assay; details: read-out: I50
[3] = biological target: T2, Glutamine synthetase (Oryza sativa) (UniProt Q01HZ7); experiment: (§2) Inhibition of Oryza sativa cv. Gigante vercellese (rice) glutamine synthetase by transferase assay
T2 sequence (whole entry): T1 sequence (Q01HZ7 whole entry)

[4] = biological target: T2, Glutamine synthetase (Oryza sativa); experiment: Inhibition of Oryza sativa cv. Gigante vercellese (rice) glutamine synthetase assessed as inhibition of glutamine synthesis from glutamic acid at 1 mM after 15 min by biosynthetic assay; details: values are per cent of control
[5] = biological target: T2, Glutamine synthetase (Oryza sativa); experiment: Inhibition of Oryza sativa cv. Gigante vercellese (rice) glutamine synthetase at 1 mM after 30 min by hemibiosynthetic assay; details: values are per cent of control
[6] = biological target: T2, Glutamine synthetase (Oryza sativa); experiment: Inhibition of Oryza sativa cv. Gigante vercellese (rice) glutamine synthetase at 1 mM by transferase assay; details: values are per cent of control
[7] = biological target: T2, Glutamine synthetase (Oryza sativa); experiment: as §1
Oryza sativa [8] = experiment: Effect on amino acid pool in Oryza sativa cv. Gigante vercellese (rice) cells assessed as aspartic acid content per gram freshweight of culture at 0.5 mM after 48 hr (reference value: 1.10 +/- 0.26 umol); type: functional
Glutamine synthetase [9] = biological target: T1, Glutamine synthetase; experiment: as §2; details: read-out: I50
Oryza sativa [10] = experiment: Effect on amino acid pool in Oryza sativa cv. Gigante vercellese (rice) cells assessed as total amino acid content per gram fresh weight of culture at 0.5 mM after 48 hr (reference value: 24.65 +/- 0.97 umol); type: functional
Oryza sativa [11] = experiment: Effect on amino acid pool in Oryza sativa cv. Gigante vercellese (rice) cells assessed as glutamine content per gram fresh weight of culture at 0.5 mM after 48 hr (reference value: 4.24 +/- 0.35 umol); type: functional
Oryza sativa [12] = experiment: Effect on amino acid pool in Oryza sativa cv. Gigante vercellese (rice) cells assessed as serine content per gram freshweight of culture at 0.5 mM after 48 hr (reference value: 0.60 +/- 0.09 umol); type: functional
Oryza sativa [13] = experiment: Effect on amino acid pool in Oryza sativa cv. Gigante vercellese (rice) cells assessed as asparagine content per gram freshweight of culture at 0.5 mM after 48 hr (reference value: 3.18 +/- 0.25 umol); type: functional
Oryza sativa [14] = experiment: Effect on amino acid pool in Oryza sativa cv. Gigante vercellese (rice) cells assessed as glutamic acid content per gram freshweight of culture at 0.5 mM after 48 hr (reference value: 0.75 +/- 0.07 umol); type: functional
[15] = biological target: T2, Glutamine synthetase (Oryza sativa); experiment: Reversible inhibition of Oryza sativa cv. Gigante vercellese (rice) glutamine synthetase assessed as inhibition of glutamine synthesis from glutamic acid at 10 uM after 50 min by biosynthetic assay
[16] = biological target: T2, Glutamine synthetase (Oryza sativa); experiment: Reversible inhibition of Oryza sativa cv. Gigante vercellese (rice) glutamine synthetase assessed as inhibition of glutamine synthesis from glutamic acid at 20 uM after 50 min by biosynthetic assay

Structure (SMILES) | I50 [3] | I50 [7] | IC50 (Glutamine synthetase [1]) [µM] | IC50 (Glutamine synthetase [2]) [µM] | residual activity [4] [%] | residual activity [5] [%] | residual activity [6] [%] | Activity (Oryza sativa [8]) [umol/g fresh weight] | IC50 (Glutamine synthetase [9]) [µM] | Activity (Oryza sativa [10]) [umol/g fresh weight] | Activity (Oryza sativa [11]) [umol/g fresh weight] | Activity (Oryza sativa [12]) [umol/g fresh weight] | Activity (Oryza sativa [13]) [umol/g fresh weight] | Activity (Oryza sativa [14]) [µmol/g fresh weight] | inhibition [15] | inhibition [16]
O=P(O)(O)C(Nc1ccccc1)P(=O)(O)O |  |  |  |  | 108 | 92 | 44.3 |  |  |  |  |  |  |  |  | 
O=P(O)(O)C(NCc1ccccn1)P(=O)(O)O |  |  | 64 | 103 | 8.8 | 16.1 | 54.6 | 1.66 | 1130 | 26.94 | 3.25 | 1.53 | 0.63 | 4.78 |  | 
O=P(O)(O)C(Nc1ncccn1)P(=O)(O)O |  |  |  |  | 42.3 | 64.3 | 76.8 |  |  |  |  |  |  |  |  | 
Cc1cccc(NC(P(=O)(O)O)P(=O)(O)O)n1 |  |  |  |  | 114 | 74.4 | 25.9 |  |  |  |  |  |  |  |  | 
O=P(O)(O)C(Nc1ccc(Cl)cn1)P(=O)(O)O |  |  | 69 | 96 | 13.9 | 17.5 | 52.8 |  | 1040 |  |  |  |  |  |  | 
O=C(O)c1cccnc1NC(P(=O)(O)O)P(=O)(O)O [2-(DIPHOSPHONOMETHYLAMINO)NICOTINIC ACID] |  |  | 334 | 624 | 27.2 | 40.8 | 61 |  | 1.45 |  |  |  |  |  |  | 
Cc1ccc(NC(P(=O)(O)O)P(=O)(O)O)cc1 [(P-TOLYLAMINO)METHYLENEDIPHOSPHONIC ACID] | inactive |  | 170 | 774 | 14.3 | 57.6 | 93.8 | 0.76 |  | 22.91 | 2.95 | 0.6 | 0.61 | 2.97 |  | 
O=P(O)(O)C(NCc1ccccc1)P(=O)(O)O |  |  |  |  | 109 | 89.1 | 102 |  |  |  |  |  |  |  |  | 
O=[N+]([O-])c1cccc(NC(P(=O)(O)O)P(=O)(O)O)c1 [(3-NITROPHENYLAMINO)METHYLENEDIPHOSPHONIC ACID] |  |  | 738 | 1620 | 97.6 | 101 | 95.6 |  | 1.99 |  |  |  |  |  |  | 
O=P(O)(O)C(Nc1ccncc1)P(=O)(O)O |  |  |  |  | 119 | 97.2 | 84.9 | 1.21 |  | 32.64 | 4.79 | 2.22 | 1.14 | 4.24 |  | 
O=P(O)(O)C(NC1CCCCC1)P(=O)(O)O [(CYCLOHEXYLAMINO)METHYLENEDIPHOSPHONIC ACID] |  |  | 1110 | 461 | 50.5 | 32.7 | 46.1 |  | 915 |  |  |  |  |  |  | 
Cc1ccccc1CNC(P(=O)(O)O)P(=O)(O)O |  |  |  |  | 101 | 70.5 | 50.8 |  |  |  |  |  |  |  |  | 
CP(=O)(O)CC[C@H](N)C(=O)O [PHOSPHINOTHRICIN] |  |  | 44 | 49 | 2 | 9.9 | 25.7 |  | 172 |  |  |  |  |  | inactive | 
NC(P(=O)(O)O)P(=O)(O)O |  |  |  |  | 119 | 81.2 | 96.4 |  |  |  |  |  |  |  |  | 
O=P(O)(O)C(Nc1ccccn1)P(=O)(O)O |  |  | 243 | 215 | 37.6 | 30.2 | 60.1 |  | 1040 |  |  |  |  |  |  | 
O=P(O)(O)C(Nc1cc(Cl)cc(Cl)c1)P(=O)(O)O [(3,5-DICHLOROPHENYLAMINO)METHYLENEDIPHOSPHONIC ACID] |  |  | 33 | 88 | 3.1 | 13.1 | 38.1 | 0.57 | 0.396 | 28.61 | 2.72 | 1.26 | 0.49 | 3.19 |  | Active

The next lines start with results.

I50 [3] | I50 [7] | Structure (SMILES) | IC50 (Glutamine synthetase [1]) [µM] | IC50 (Glutamine synthetase [2]) [µM] | residual activity [4] [%] | residual activity [5] [%] | residual activity [6] [%] | Activity (Oryza sativa [8]) [umol/g fresh weight] | IC50 (Glutamine synthetase [9]) [µM] | Activity (Oryza sativa [10]) [umol/g fresh weight] | Activity (Oryza sativa [11]) [umol/g fresh weight] | Activity (Oryza sativa [12]) [umol/g fresh weight] | Activity (Oryza sativa [13]) [umol/g fresh weight] | Activity (Oryza sativa [14]) [µmol/g fresh weight] | inhibition [15] | inhibition [16]
inactive |  | O=P(O)(O)C(NCCc1ccc(O)cc1)P(=O)(O)O [(4-HYDROXYPHENETHYLAMINO)METHYLENEDIPHOSPHONIC ACID] | 4470 | 695 | 72.6 | 36.9 | 98.4 |  |  |  |  |  |  |  |  | 
inactive | inactive | O=C(O)c1cccc(NC(P(=O)(O)O)P(=O)(O)O)c1 [3-(DIPHOSPHONOMETHYLAMINO)BENZOIC ACID] | 1800 |  | 62.5 | 99 | 104 |  |  |  |  |  |  |  |  | 
